Measured values from patent US9315520B2, “2-amino-6-methyl-4,4a,5,6-tetrahydropyrano[3,4-d][1,3]thiazin-8a(8H)-yl-1,3-thiazol-4-yl amides” (Pfizer Inc., priority 2014, dated 2016).
Like-named read-outs stand apart in the source and are kept apart here.

Experiments:
GSH Incubation Assay [1] = assay type: in vitro ADME; settings: incubation in human liver microsomes in the presence of GSH
human BACE2 = human BACE2 (Homo sapiens (Human), UniProt Q9Y5Z0); assay: BACE2 binding assay (SPA); settings: ratio of IC50 from BACE2 and BACE1 binding assays, pH 6.0
human BACE2, sequence (Q9Y5Z0 63-518): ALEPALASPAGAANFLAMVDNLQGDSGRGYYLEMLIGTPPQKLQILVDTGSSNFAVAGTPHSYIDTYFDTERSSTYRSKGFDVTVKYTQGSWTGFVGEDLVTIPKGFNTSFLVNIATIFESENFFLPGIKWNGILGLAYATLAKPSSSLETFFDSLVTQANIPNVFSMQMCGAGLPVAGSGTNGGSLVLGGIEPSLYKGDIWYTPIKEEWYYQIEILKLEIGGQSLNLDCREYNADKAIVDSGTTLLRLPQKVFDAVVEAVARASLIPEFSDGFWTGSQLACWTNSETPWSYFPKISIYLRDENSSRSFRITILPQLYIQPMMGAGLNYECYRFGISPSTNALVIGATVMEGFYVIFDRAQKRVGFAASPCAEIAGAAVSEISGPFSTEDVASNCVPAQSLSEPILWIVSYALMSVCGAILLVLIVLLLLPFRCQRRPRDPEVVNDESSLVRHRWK
Source text: BACE2/BACE1 Binding Ratio:
The BACE1 and BACE2 binding assays measured beta-site amyloid precursor protein-cleaving enzyme (BACE) binding as a decrease in the counts of radioligand bound in a scintillation proximity assay (SPA). Utilizing a radiolabeled small molecule BACE active site binding inhibitor and crude HEK cell membrane preparations over-expressing full length BACE1 or BACE2, the binding of enzyme by test compound was monitored as a reduction of specific counts bound at pH 6.0. Full length human BACE1 or BACE2 over-expressed in HEK cells was prepared by Pfizer scientists. Frozen stock cell paste was reacted in 50 mM sodium acetate buffer (pH=6.0) containing 3H-(4aR,6R,8aS)-8a-(2,4-difluorophenyl)-6-(1-methyl-1H-pyrazol-4-yl)-4,4a,5,6,8,8a-hexahydropyrano[3,4-d][1,3]thiazin-2-amine ligand, SPA bead and 60 μM to 600 pM of test compound in an assay volume of 27 uL. The compound plate also contained positive (BACE inhibitor) and negative (DMSO) control wells. The binding was carried out at room temperature for 30 minutes and then the plates were read on a TriLux Microbeta reader to determine the number of counts bound.

[2] = tested on: sAPPβ, the primary cleavage product of BACE1, in H4 human neuroglioma cells over-expressing the wild-type human APP695; assay: sAPPβ Whole-Cell Assay (WCA); assay type: cell-based; settings: 18 h
Method: sAPPβ Whole-Cell Assay (WCA):
sAPPβ, the primary cleavage product of BACE1, was determined in H4 human neuroglioma cells over-expressing the wild-type human APP695. […] The colorimetric reaction was read by an EnVision (PerkinElmer) plate-reader.

BACE1 = BACE1 (Homo sapiens (Human), UniProt P56817); assay: BACE1 Cell-Free Assay (fluorescence polarization); assay type: biochemical
BACE1, sequence (P56817 46-457): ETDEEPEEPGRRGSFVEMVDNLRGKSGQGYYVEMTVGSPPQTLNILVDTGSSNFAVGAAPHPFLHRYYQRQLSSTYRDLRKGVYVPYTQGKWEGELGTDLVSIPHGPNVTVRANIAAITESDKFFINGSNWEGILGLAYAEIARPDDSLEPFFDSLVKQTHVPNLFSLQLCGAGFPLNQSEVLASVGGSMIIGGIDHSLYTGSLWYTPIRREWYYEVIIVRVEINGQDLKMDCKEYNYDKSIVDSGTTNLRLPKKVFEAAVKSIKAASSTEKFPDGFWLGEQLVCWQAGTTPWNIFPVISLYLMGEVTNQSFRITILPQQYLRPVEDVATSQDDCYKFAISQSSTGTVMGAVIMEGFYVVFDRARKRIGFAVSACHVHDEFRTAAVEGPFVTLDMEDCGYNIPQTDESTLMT

[3] = HLM Clint (clearance in human liver microsomes); assay type: in vitro ADME; settings: for CLint scaled: human
pKa = assay type: physicochemical; settings: Measurement determined at Analyza
[4] = molecular target: P-glycoprotein (MDR1-transfected MDCK cell line) (Homo sapiens (Human), UniProt P08183); assay: Pgp Liability MDR1 Er; assay type: in vitro ADME; settings: Papp BA/AB
P-glycoprotein (MDR1-transfected MDCK cell line), sequence (P08183 whole entry): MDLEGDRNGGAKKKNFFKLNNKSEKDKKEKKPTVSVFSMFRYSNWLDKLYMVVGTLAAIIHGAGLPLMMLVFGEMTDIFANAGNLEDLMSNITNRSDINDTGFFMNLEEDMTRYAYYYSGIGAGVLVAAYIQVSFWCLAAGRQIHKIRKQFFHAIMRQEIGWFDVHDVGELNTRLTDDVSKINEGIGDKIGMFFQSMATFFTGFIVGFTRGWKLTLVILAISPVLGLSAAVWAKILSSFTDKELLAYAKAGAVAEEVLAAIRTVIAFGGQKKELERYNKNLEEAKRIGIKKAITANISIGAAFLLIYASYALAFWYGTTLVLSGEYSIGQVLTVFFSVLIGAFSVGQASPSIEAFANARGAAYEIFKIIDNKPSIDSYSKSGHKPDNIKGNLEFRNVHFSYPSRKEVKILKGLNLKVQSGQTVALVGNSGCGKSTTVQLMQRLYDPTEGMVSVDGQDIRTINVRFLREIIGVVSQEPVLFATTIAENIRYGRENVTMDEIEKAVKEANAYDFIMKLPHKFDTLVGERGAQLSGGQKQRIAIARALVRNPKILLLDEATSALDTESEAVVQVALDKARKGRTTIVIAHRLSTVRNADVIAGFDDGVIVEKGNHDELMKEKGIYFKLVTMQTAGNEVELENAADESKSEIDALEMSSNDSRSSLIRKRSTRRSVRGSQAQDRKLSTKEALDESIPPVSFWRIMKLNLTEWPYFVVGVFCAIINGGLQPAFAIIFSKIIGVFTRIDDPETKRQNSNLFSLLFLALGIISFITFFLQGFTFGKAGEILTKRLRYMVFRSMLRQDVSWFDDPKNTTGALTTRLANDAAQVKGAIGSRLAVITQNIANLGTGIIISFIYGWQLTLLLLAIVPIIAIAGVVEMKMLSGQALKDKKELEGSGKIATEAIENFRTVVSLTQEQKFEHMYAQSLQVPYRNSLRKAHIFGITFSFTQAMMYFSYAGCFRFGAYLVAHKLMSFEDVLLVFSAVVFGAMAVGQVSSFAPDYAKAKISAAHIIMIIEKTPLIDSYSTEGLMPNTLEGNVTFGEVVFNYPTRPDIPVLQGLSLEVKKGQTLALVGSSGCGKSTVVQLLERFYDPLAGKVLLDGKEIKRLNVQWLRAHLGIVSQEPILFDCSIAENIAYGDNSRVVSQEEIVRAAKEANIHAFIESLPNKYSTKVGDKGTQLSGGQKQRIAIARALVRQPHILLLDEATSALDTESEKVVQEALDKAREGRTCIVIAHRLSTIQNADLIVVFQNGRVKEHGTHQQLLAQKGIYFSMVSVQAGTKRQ
Source text: (§1) MDR1 Efflux Ratio (MDR Er) from MDR1-transfected MDCK line cell line represents the ratio of permeability, Papp BA/AB. Procedure utilized from (Feng, B.; Mills, J. B.; Davidson, R. E.; Mireles, R. J.; Janiszewski, J. S.; Troutman, M. D.; de Morais, S. M. In vitro P-glycoprotein assays to predict the in vivo interactions of P-glycoprotein with drugs in the central nervous system. Drug Metab. Dispos. 2008, 36, 268-275.

hERG channel = hERG channel (Homo sapiens (Human), UniProt Q12809); assay: hERG Patch Clamp Assay; assay type: cell-based
hERG channel, sequence (Q12809 whole entry): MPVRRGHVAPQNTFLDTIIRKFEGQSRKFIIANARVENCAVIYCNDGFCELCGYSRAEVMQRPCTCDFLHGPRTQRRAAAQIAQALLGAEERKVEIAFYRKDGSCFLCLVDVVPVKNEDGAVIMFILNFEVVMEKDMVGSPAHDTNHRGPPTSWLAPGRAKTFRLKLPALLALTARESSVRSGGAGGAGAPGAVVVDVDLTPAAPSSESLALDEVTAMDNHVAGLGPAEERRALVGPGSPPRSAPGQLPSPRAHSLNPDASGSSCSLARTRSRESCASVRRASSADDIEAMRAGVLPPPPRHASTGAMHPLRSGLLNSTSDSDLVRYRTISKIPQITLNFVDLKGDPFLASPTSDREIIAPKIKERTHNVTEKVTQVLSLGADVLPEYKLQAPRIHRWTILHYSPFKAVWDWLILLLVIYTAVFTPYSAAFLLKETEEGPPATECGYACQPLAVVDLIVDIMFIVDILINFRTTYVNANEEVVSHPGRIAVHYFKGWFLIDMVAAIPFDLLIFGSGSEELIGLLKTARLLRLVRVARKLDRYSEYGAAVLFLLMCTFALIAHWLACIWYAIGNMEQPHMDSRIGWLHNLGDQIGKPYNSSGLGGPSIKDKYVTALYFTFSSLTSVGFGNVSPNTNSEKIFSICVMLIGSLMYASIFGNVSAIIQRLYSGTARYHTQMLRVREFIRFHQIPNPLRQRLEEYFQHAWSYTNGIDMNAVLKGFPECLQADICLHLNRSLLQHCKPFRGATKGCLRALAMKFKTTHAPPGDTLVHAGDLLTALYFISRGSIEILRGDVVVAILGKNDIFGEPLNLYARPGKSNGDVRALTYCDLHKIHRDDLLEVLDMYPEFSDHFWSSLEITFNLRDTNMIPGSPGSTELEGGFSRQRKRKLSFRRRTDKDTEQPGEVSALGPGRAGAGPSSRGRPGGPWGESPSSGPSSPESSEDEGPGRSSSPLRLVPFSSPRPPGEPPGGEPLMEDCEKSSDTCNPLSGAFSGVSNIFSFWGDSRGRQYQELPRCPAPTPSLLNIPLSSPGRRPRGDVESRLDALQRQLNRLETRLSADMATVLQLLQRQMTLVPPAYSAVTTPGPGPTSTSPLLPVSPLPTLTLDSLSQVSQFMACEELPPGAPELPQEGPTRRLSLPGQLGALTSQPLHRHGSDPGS
Method: After a ˜30 minute recovery period, experiments were initiated.
hERG Potassium Channel Current Recordings and Data Analysis:
The intracellular recording saline was composed of (in […]): 70 KF, 60 KCl, 15 NaCl, 5 EGTA, 5 HEPES, and adjusted to pH 7.2±0.1 with KOH. […] Test pulses were delivered at a frequency of 0.25 Hz. Up to 4 different concentrations were studied on each cell, each exposure lasting 5 minutes or until steady-state effects were observed. […] Using Sophion Qpatch Assay Software, the amplitude of the peak outward hERG current upon repolarizing ramp was measured. Current amplitude was determined by taking the average of the last 5 current peaks under each treatment condition. […] When possible, a concentration-response curve was plotted and the data were fitted using Qpatch software to determine an IC50. The P<0.05 was considered statistically significant.

CYP2D6 = CYP2D6 (Homo sapiens (Human), UniProt P10635); assay: General Multi-Point Cocktail DDI IC50 Assay
CYP2D6, sequence (P10635 whole entry): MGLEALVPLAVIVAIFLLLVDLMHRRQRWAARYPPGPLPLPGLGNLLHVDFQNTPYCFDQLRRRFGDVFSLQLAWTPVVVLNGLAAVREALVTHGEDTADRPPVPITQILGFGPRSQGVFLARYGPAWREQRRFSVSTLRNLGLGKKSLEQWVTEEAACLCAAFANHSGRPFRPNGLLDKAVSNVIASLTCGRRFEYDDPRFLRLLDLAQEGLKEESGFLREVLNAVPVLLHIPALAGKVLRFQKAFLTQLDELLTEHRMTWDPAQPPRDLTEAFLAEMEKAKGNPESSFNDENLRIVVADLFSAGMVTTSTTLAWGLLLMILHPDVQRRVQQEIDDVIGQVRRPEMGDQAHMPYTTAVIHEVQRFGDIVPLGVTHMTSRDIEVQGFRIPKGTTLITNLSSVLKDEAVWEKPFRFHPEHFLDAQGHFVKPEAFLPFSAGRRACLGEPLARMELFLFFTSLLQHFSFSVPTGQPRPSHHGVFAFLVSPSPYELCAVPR
Method: General Multi-Point Cocktail DDI IC50 Assay Conditions:
The incubation volume is 0.1 mL, utilizing a 384-well plate format. […] Substrate concentrations are near Km values that had been previously determined and incubation times are selected based on determinations of reaction velocity linearity. […] Samples are directly injected on an HPLC/MS/MS system. A Biomek FX workstation is used for liquid handling and sample incubation.

GSH Incubation Assay [5] = assay type: in vitro ADME; settings: for Observed GSH adducts: Incubations with glutathione (50 mM) at 37° C. in buffer for 4 hours; for formation of GSH adducts: following incubations
Method: The test compound (10 μM in DMSO) was incubated with L-glutathione (50 mM, prepared in 100 mM potassium phosphate buffer) at 37° C. for 4 hours and then analyzed by HPLC-UV/MS/MS without work-up. Thermo Accela HPLC and Velos Pro Orbitrap Elite (S/N: SN05189B) operating in positive mode with a source voltage of 3.5 kV with data dependant processing. HPLC with a Phenomenox Kinetex C18, 1.7 μM, 2.1×100 mm. column (P/N: 00D-4475-AN), 5% acetonitrile/95% 0.1% formic acid for 0.5 min then a 7.0 min linear gradient to 40% acetonitrile/60% 0.1% formic acid, 400 μL/min., column temperature 45° C. Product assignments were based on high resolution mass spectrometer fragmentation.

P-glycoprotein (MDR1) = P-glycoprotein (MDR1) (Homo sapiens (Human), UniProt P08183); assay: Pgp Liability MDR1 Er; assay type: in vitro ADME; settings: dog; MDR1-transfected MDCK cell line; ratio of permeability, Papp BA/AB
P-glycoprotein (MDR1), sequence (P08183 whole entry): as the sequence (P08183 whole entry) above
Source text: as §1

[6] = Table 4, read-out: BACE1 Cell Free IC50
[7] = MDR1-transfected MDCK cell line, ratio of permeability
[8] = CHO cell transfected with hERG gene, automated Qpatch HT system
[9] = CHO cells transfected with hERG

Compound: C[C@H]1C[C@H]2CSC(N)=N[C@@]2(c2cc(NC(=O)c3ccc(C#N)cn3)cs2)CO1 [Comparator 5]
- Aniline Structural Alert (Aniline structural alert): No
- formation of GSH adducts (GSH Incubation Assay [1]): formation of chemical adducts

Compound: NC1=N[C@@]2(c3cc(NC(=O)c4ccc(OC(F)F)cn4)ccc3F)CO[C@@H](C(F)(F)F)C[C@H]2CS1 [Comparator 6, reference compound]
- BACE2/BACE1 Binding Ratio (human BACE2): 1.0
- IC50 [2]: < 0.001 µM
- IC50 (BACE1; [6]): 0.006 µM
- Aniline Structural Alert (Aniline structural alert): Yes
- HLM CLint [3]: <12.8 mL/min/kg
- pKa (pKa): 7.7
- Pgp liability MDR1 Er [4, 7]: 3.2

Compound: C[C@H]1C[C@H]2CSC(N)=N[C@@]2(c2cc(NC(=O)c3ccc(Cl)cn3)ccc2F)CO1 [Comparator 7, reference compound]
- BACE2/BACE1 Binding Ratio (human BACE2): 1.0
- IC50 [2]: < 0.001 µM
- IC50 (BACE1; [6]): 0.001 µM
- Aniline Structural Alert (Aniline structural alert): Yes
- IC50 (hERG channel; [8]): 0.2 µM
- HLM CLint [3]: 34.4 mL/min/kg^
- pKa (pKa): 8.2
- Pgp liability MDR1 Er [4, 7]: 3.03

Compound: C[C@H]1C[C@H]2CSC(N)=N[C@@]2(c2nc(NC(=O)c3ccc(OC(F)F)cn3)cs2)CO1 [Example 1, N-{2-[(4aR,6S,8aR)-2-amino-6-methyl-4,4a,5,6-tetrahydropyrano[3,4-d][1,3]thiazin-8a(8H)-yl]-1,3-thiazol-4-yl}-5-(difluoromethoxy)pyridine-2-carboxamide]
- IC50 (CYP2D6): > 30 µM
- IC50 (CYP2D6; human, microsomes, pH 7.4): > 30 µM
- IC50 ([2]; Homo sapiens): 0.005 µM
- Observed GSH adducts (GSH Incubation Assay [5]): Negative
- formation of GSH adducts (GSH Incubation Assay [5]): not detected
- IC50 (hERG channel; [8]): 9.9 µM
- IC50 (hERG channel; [9]): > 5 µM
- HLM CLint [3]: <8 mL/min/kg
- CLint scaled [3]: < 8 mL/min/kg
- pKa (pKa; read-out: pKa): 6.8
- Pgp liability MDR1 Er ([4]; MDR1-transfected MDCK): < 2.5

Compound: C[C@H]1C[C@H]2CSC(N)=N[C@@]2(c2nc(NC(=O)c3cnc(OC(F)F)cn3)cs2)CO1 [Example 2, N-{2-[(4aR,6S,8aR)-2-amino-6-methyl-4,4a,5,6-tetrahydropyrano[3,4-d][1,3]thiazin-8a(8H)-yl]-1,3-thiazol-4-yl}-5-(difluoromethoxy)pyrazine-2-carboxamide]
- IC50 (CYP2D6): > 30 µM
- IC50 (CYP2D6; human, microsomes, pH 7.4): > 30 µM
- IC50 ([2]; Homo sapiens): 0.007 µM
- IC50 (BACE1; [6]): 0.073 µM
- IC50 (BACE1; geometric mean of 2-4 determinations unless otherwise indicated (b: ≧5; c: single determination), read-out: BACE1 Cell-free Assay IC50): 0.073 µM
- Observed GSH adducts (GSH Incubation Assay [5]): Negative
- formation of GSH adducts (GSH Incubation Assay [5]): not detected
- Aniline Structural Alert (Aniline structural alert): No
- IC50 (hERG channel; [8]): 23.6 µM
- IC50 (hERG channel; [9]): > 5 µM
- HLM CLint [3]: <8 mL/min/kg
- CLint scaled [3]: < 8 mL/min/kg
- pKa (pKa; read-out: pKa): 6.8
- efflux ratio (P-glycoprotein (MDR1)): 1.8
- Pgp liability MDR1 Er ([4]; MDR1-transfected MDCK): < 2.5

Compound: C[C@H]1C[C@H]2CSC(N)=N[C@@]2(c2nc(NC(=O)c3ccc(Cl)cn3)cs2)CO1 [Example 7, N-{2-[(4aR,6S,8aR)-2-amino-6-methyl-4,4a,5,6-tetrahydropyrano[3,4-d][1,3]thiazin-8a(8H)-yl]-1,3-thiazol-4-yl}-5-chloropyridine-2-carboxamide]
- IC50 (CYP2D6): > 30 µM
- IC50 (CYP2D6; human, microsomes, pH 7.4): > 30 µM
- IC50 ([2]; Homo sapiens): 0.004 µM
- Observed GSH adducts (GSH Incubation Assay [5]): Negative
- formation of GSH adducts (GSH Incubation Assay [5]): not detected
- Aniline Structural Alert (Aniline structural alert): No
- IC50 (hERG channel; [8]): 9 µM
- IC50 (hERG channel; [9]): > 5 µM
- HLM CLint [3]: <8 mL/min/kg
- CLint scaled [3]: < 8 mL/min/kg
- pKa (pKa; read-out: pKa): 6.9
- Pgp liability MDR1 Er ([4]; MDR1-transfected MDCK): < 2.5
